According to US20100285145A1, “GPR 119 MODULATORS” (PFIZER INC, priority 2009, published 2010):
Several values for one entry are separate records, joined by “and”; a condition that tells them apart may be missing. Equal entries are not always repeated.

Molecular target: T1, human GPR119 (Homo sapiens, UniProt Q8TDV5)
T1 sequence (Q8TDV5 1-335): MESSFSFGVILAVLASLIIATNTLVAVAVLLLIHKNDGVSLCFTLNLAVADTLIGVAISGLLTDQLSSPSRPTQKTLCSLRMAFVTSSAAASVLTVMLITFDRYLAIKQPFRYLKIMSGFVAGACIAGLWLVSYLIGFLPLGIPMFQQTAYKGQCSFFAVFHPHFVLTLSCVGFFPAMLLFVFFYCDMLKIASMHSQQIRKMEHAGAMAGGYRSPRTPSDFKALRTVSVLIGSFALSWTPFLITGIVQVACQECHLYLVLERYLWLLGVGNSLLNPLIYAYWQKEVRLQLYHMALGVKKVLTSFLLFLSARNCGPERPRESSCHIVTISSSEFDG
Experiment: GPR119 radioligand binding assay ([3H]-Compound A or B, membranes of HEK 293FT cells expressing hGPR119)
Parameters: host or cells: HEK293-CRE beta-lactamase
Conditions: calculated from IC50 with Cheng-Prusoff; each line a separate determination
Description: HEK 293FT cells (Invitrogen, Carlsbad, Calif.) were grown in a shake flask in 293Freestyle medium (Invitrogen) supplemented with 50 microg/mL neomycin and 10 mM HEPES (37C, 8% carbon dioxide, shaking). The cells were centrifuged gently (approximately 500×g, 10 minutes) and the pellet resuspended in a mixture of Dulbecco's PBS (minus Mg++/−Ca++) supplemented with 18% fetal bovine serum (Sigma Aldrich) and P1 virus such that the multiplicity of infection (MOI) was 10 and the final cell density was 1.3×10^6/mL (total volume 2.5 liters). The cells were transferred to a 5 liter Wave Bioreactor Wavebag (Wave Technologies, Mass.) and incubated for 4 hours at 27 degrees Celsius (17 rocks/min, 7 degrees platform angle); at the end of the incubation period, an equal volume (2.5 liters) of 293Freestyle medium supplemented with 30 mM sodium butyrate (Sigma Aldrich) was added (final concentration=15 mM), and the cells were grown for 20 hours (37 degrees Celsius, 8% CO2 [0.2 liters/min}, 25 rocks/minute, 7 degrees platform angle). Cells were harvested via centrifugation (3,000×g, 10 minutes), washed once on DPBS (minus Ca++/Mg++), resuspended in 0.25M sucrose, 25 mM HEPES, 0.5 mM EDTA, pH 7.4 and frozen at −80 degrees Celsius.
The frozen cells were thawed on ice and centrifuged at 700×g (1400 rpm) for 10 minutes at 4 degrees Celsius. The cell pellet was resuspended in 20 mL phosphate-buffered saline, and centrifuged at 1400 rpm for 10 minutes. The cell pellet was then resuspended in homogenization buffer (10 mM HEPES (Gibco #15630), pH 7.5, 1 mM EDTA (BioSolutions, #BIO260-15), 1 mM EGTA (Sigma, #E-4378), 0.01 mg/mL benzamidine (Sigma #B 6506), 0.01 mg/mL bacitracin (Sigma #B 0125), 0.005 mg/mL leupeptin (Sigma #L 8511), 0.005 mg/mL aprotinin (Sigma #A 1153)) and incubated on ice for 10 minutes. Cells were then lysed with 15 gentle strokes of a tight-fitting glass Dounce homogenizer. The homogenate was centrifuged at 1000×g (2200 rpm) for 10 minutes at 4 degrees Celsius. The supernatant was transferred into fresh centrifuge tubes on ice. The cell pellet was resuspended in homogenization buffer, and centrifuged again at 1000×g (2200 rpm) for 10 minutes at 4 degrees Celsius after which the supernatant was removed and the pellet resuspended in homogenization buffer. This process was repeated a third time, after which the supernatants were combined, Benzonase (Novagen # 71206) and MgCl2 (Fluka #63020) were added to final concentrations of 1 U/mL and 6 mM, respectively, and incubated on ice for one hour. The solution was then centrifuged at 25,000×g (15000 rpm) for 20 minutes at 4 degrees Celsius, the supernatant was discarded, and the pellet was resuspended in fresh homogenization buffer (minus Benzonase and MgCl2). After repeating the 25,000×g centrifugation step, the final membrane pellet was resuspended in homogenization buffer and frozen at −80 degrees Celsius. The protein concentration was determined using the Pierce BCA protein assay kit (Pierce reagents A #23223 and B #23224).
Test compounds were serially diluted in 100% DMSO (J. T. Baker #922401). 2 microL of each dilution was added to appropriate wells of a 96-well plate (each concentration in triplicate). Unlabeled Compound A (or Compound B), at a final concentration of 10 microM, was used to determine non-specific binding. [^3H]-Compound A (or [^3H]-Compound B) was diluted in binding buffer (50 mM Tris-HCl, pH 7.5, (Sigma #T7443), 10 mM MgCl2 (Fluka 63020), 1 mM EDTA (BioSolutions #BIO260-15), 0.15% bovine serum albumin (Sigma #A7511), 0.01 mg/mL benzamidine (Sigma #B 6506), 0.01 mg/mL bacitracin (Sigma #B 0125), 0.005 mg/mL leupeptin (Sigma #L 8511), 0.005 mg/mL aprotinin (Sigma #A 1153)) to a concentration of 60 nM, and 100 microL added to all wells of 96-well plate (Nalge Nunc # 267245). […]

Ki | SMILES
39 nM and 34.7 nM | Cc1c(O[C@H]2[C@@H]3COC[C@H]2CN(C(=O)OC2(C)CC2)C3)ncnc1N1CCc2ncccc21 [Example 25, 1-Methylcyclopropyl (9-anti)-9-{[6-(2,3-dihydro-1H-pyrrolo[3,2-b]pyridin-1-yl)-5-methylpyrimidin-4-yl]oxy}-3-oxa-7-azabicyclo[3.3.1]nonane-7-carboxylate]
66.6 nM and 79.3 nM and 53 nM and 96.4 nM | Cc1c(O[C@H]2[C@@H]3COC[C@H]2CN(C(=O)OC(C)C)C3)ncnc1N1CCc2ncccc21 [Example 22, Isopropyl (9-anti)-9-{[6-(2,3-dihydro-1H-pyrrolo[3,2-b]pyridin-1-yl)-5-methylpyrimidin-4-yl]oxy}-3-oxa-7-azabicyclo[3.3.1]nonane-7-carboxylate]
73.8 nM | Cc1c(O[C@@H]2[C@@H]3COC[C@H]2CN(C(=O)OC(C)C)C3)ncnc1N1CCc2ncccc21 [Example 29, Isopropyl (9-syn)-9-{[6-(2,3-dihydro-1H-pyrrolo[3,2-b]pyridin-1-yl)-5-methylpyrimidin-4-yl]oxy}-3-oxa-7-azabicyclo[3.3.1]nonane-7-carboxylate]
2 nM and 5.04 nM and 2.43 nM and 4.23 nM and 1.7 nM and 5.67 nM and 13.8 nM and 11.9 nM and 2.45 nM and 6.9 nM | Cc1c(O[C@H]2CCN(C(=O)OC3(C)CC3)C[C@H]2F)ncnc1N1CCc2ncccc21 [Example 17, 1-Methylcyclopropyl (3R,4S)-4-{[6-(2,3-dihydro-1H-pyrrolo[3,2-b]pyridin-1-yl)-5-methylpyrimidin-4-yl]oxy}-3-fluoropiperidine-1-carboxylate]
20.8 nM and 13.8 nM | Cc1c(O[C@H]2[C@@H]3COC[C@H]2CN(C(=O)OC2(C)CCC2)C3)ncnc1N1CCc2ncccc21 [Example 27, 1-Methylcyclobutyl (9-anti)-9-{[6-(2,3-dihydro-1H-pyrrolo[3,2-b]pyridin-1-yl)-5-methylpyrimidin-4-yl]oxy}-3-oxa-7-azabicyclo[3.3.1]nonane-7-carboxylate]
40.5 nM and 22.2 nM | CCC1(OC(=O)N2C[C@H]3COC[C@@H](C2)[C@H]3Oc2ncnc(N3CCc4ncccc43)c2C)CC1 [Example 26, 1-Ethylcyclopropyl (9-anti)-9-{[6-(2,3-dihydro-1H-pyrrolo-[3,2-b]pyridin-1-yl)-5-methylpyrimidin-4-yl]oxy}-3-oxa-7-azabicyclo[3.3.1]nonane-7-carboxylate]

The remaining lines, values behind:

SMILES | Ki
Cc1c(O[C@H]2CCN(C(=O)OC(C)(C)C)C[C@H]2F)ncnc1N1CCc2ncccc21 (racemic) [Example 16, tert-Butyl (3R,4S)-4-{[6-(2,3-dihydro-1H-pyrrolo[3,2-b]pyridin-1-yl)-5-methylpyrimidin-4-yl]oxy}-3-fluoropiperidine-1-carboxylate (racemic)] | 1.48 nM and 2.12 nM
CC(C)OC(=O)N1C[C@H]2COC[C@@H](C1)[C@H]2Oc1cc(N2CCc3cc(S(C)(=O)=O)ccc32)ncn1 [Example 1, Isopropyl 9-anti-({6-[5-(methylsulfonyl)-2,3-dihydro-1H-indol-1-yl]pyrimidin-4-yl}oxy)-3-oxa-7-azabicyclo[3.3.1]nonane-7-carboxylate] | 219 nM and 35.5 nM
CC(C)OC(=O)N1CCC(Oc2ncnc(N3CCc4cc(S(C)(=O)=O)ccc43)c2C#N)CC1 [Example 6, Isopropyl 4-({5-cyano-6-[5-(methylsulfonyl)-2,3-dihydro-1H-indol-1-yl]pyrimidin-4-yl}oxy)piperidine-1-carboxylate] | 1.87 nM and 5.02 nM
CC(C)(C)OC(=O)N1CCC(Oc2cc(N3CCc4cc(S(C)(=O)=O)ccc43)ncn2)C(F)C1 (racemic) [Example 15, tert-Butyl 3-fluoro-4-({6-[5-(methylsulfonyl)-2,3-dihydro-1H-indol-1-yl]pyrimidin-4-yl}oxy)piperidine-1-carboxylate] | 1.72 nM and 6.77 nM and 1.6 nM
Cc1c(OC2CCN(C(=O)OC(C)C)CC2)ncnc1N1CCc2cc(S(C)(=O)=O)ccc21 [Example 8, Isopropyl 4-({5-methyl-6-[5-(methylsulfonyl)-2,3-dihydro-1H-indol-1-yl]pyrimidin-4-yl}oxy)piperidine-1-carboxylate] | 273 nM and 338 nM
Cc1c(OC2CCN(C(=O)OC(C)C)CC2)ncnc1N1CCc2ncccc21 [Example 13, Isopropyl 4-{[6-(2,3-dihydro-1H-pyrrolo[3,2-b]pyridin-1-yl)-5-methylpyrimidin-4-yl]oxy}-piperidine-1-carboxylate] | 55.3 nM and 16 nM and 91.1 nM and 23.8 nM
CC(C)OC(=O)N1CCC(Oc2cc(N3CCc4cc(S(=O)(=O)CCO)ccc43)ncn2)CC1 [Example 11, Isopropyl 4-[(6-{5-[(2-hydroxyethyl)sulfonyl]-2,3-dihydro-1H-indol-1-yl}pyrimidin-4-yl)oxy]piperidine-1-carboxylate] | 72.8 nM
CC(C)OC(=O)N1CCC(Oc2cc(N3CCc4cc(C#N)ccc43)ncn2)CC1 [Example 10, Isopropyl 4-{[6-(5-cyano-2,3-dihydro-1H-indol-1-yl)pyrimidin-4-yl]oxy}piperidine-1-carboxylate] | 232 nM
CC(C)OC(=O)N1CCC(Oc2cc(N3CCc4ncccc43)ncn2)CC1 [Example 12, Isopropyl 4-{[6-(2,3-dihydro-1H-pyrrolo[3,2-b]pyridin-1-yl)pyrimidin-4-yl]oxy}piperidine-1-carboxylate] | 6100 nM and 1350 nM and 2910 nM
CC(C)OC(=O)N1CCC(Oc2cc(N3CCc4cc(C(=O)N(C)C)ccc43)ncn2)CC1 [Example 9, 4-[6-(5-Dimethylcarbamoyl-2,3-dihydroindol-1-yl)-pyrimidin-4-yloxy]-piperidine-1-carboxylic acid isopropyl ester] | 58.8 nM and 45.2 nM
